Laboratory results reported in ChEMBL document CHEMBL1156829 (Proc Natl Acad Sci U S A, 2008).
pEC50: −log10 of the molar value.

Columns and labels:
Plasmodium falciparum [1] = experiment: NOVARTIS: Inhibition of Plasmodium falciparum 3D7 (drug-susceptible) proliferation in erythrocyte-based infection assay; assay type: functional, organism-based; conditions: Plasmodium falciparum, 3D7
Plasmodium falciparum [2] = experiment: NOVARTIS: Inhibition of Plasmodium falciparum W2 (drug-resistant) proliferation in erythrocyte-based infection assay; assay type: functional, organism-based; conditions: Plasmodium falciparum, W2; read-out: EC50
[3] = NOVARTIS: Cytotoxicity against human hepatocellular carcinoma cell line (Huh7); assay type: toxicity, cell-based, Huh-7; conditions: Huh7 cells (hepatocellular carcinoma cell line)

| SMILES | pEC50 (Plasmodium falciparum [1]) | pEC50 (Plasmodium falciparum [2]) | CC50 [3] [nM] |
| --- | --- | --- | --- |
| C/N=C(\N)Nc1nc(C)c2cc(OC)ccc2n1 | 6.18 | 6.14 | > 10000 |
| O=C(C[n+]1ccc(/C=N/O)cc1)NC12CC3CC(CC(C3)C1)C2 | < 4.90 | 5.51 | 42200 |
| O=C(Nc1ccc(-c2nc3ccc(-c4nc5ccc(NC(=O)c6ccccc6[N+](=O)[O-])cc5[nH]4)cc3[nH]2)cc1)c1ccccc1[N+](=O)[O-] | < 5.90 | 6.01 | > 10000 |
| FC(F)(F)c1ccc(Nc2nnnc3ccccc23)cc1 | 5.11 | 5.14 | > 100000 |
| O=C(Nc1ccc(-c2nc3ccc(NC(=O)c4ccc(Br)cc4)cc3[nH]2)cc1)c1ccc(Br)cc1 | 6.50 | 6.38 | 4190 |
| CC1(C)Cc2c(oc3ncn(CCn4cnc5oc6c(c5c4=N)CC(C)(C)SC6)c(=N)c23)CS1 | < 4.90 | 5.01 | > 100000 |
| NC(=O)c1ccc2[nH]c3c(c2c1)CCCC3 | < 4.90 | < 5.15 | > 100000 |
| COc1cccc(-c2ccc(O)c(CNCCc3cccc(F)c3)c2)n1 | 5.96 | 6.14 | > 10000 |
| Clc1ccc(CCNC2CCN(CCc3ccccc3)CC2)cc1 | 6.82 | 6.16 | 9600 |
| COc1cccc2c1C(=O)c1c(O)c3c(c(O)c1C2=O)C[C@@](O)(C(=O)CO)C[C@@H]3O[C@@H]1C[C@H](N)[C@H](O)[C@H](C)O1 | 7.31 | 7.32 | 485 |
| CC(C)CNc1nc(NCCCN2CCCCC2C)ncc1C(=O)NCCc1ccccc1 (configuration not stated) | 6.42 | 6.14 | > 10000 |
| c1ccc2c(NCCNc3c4ccccc4nc4ccccc34)c3ccccc3nc2c1 | 7.08 | 6.07 | 11800 |
| COc1ccc(Cn2cccc(C(=O)Nc3ccc(OC)cc3)c2=O)cc1 | < 4.90 | 5.51 | 42500 |
| CCOCCCNC(=O)C1CCCN(S(=O)(=O)c2ccc(C)cc2)C1 (configuration not stated) | < 6.18 | < 6.14 | > 10000 |
| CC(C)CNC(=O)c1cnc(NCCc2ccncc2)nc1NCCc1ccccc1 | 6.09 | 6.14 | > 10000 |
| CCN1CCN(C(=O)CS(=O)(=O)Cc2nc(-c3cccc(OC)c3)oc2C)CC1 | < 5.90 | < 6.15 | > 10000 |
| Cc1cc(C)cc(NC(=O)c2cc(-c3ccc(Cl)cc3)nc3ccccc23)c1 | < 5.90 | < 6.15 | > 10000 |
| CCOC(=O)c1c(NC(=O)c2cccnc2)sc(C)c1CC | < 5.96 | < 6.15 | > 10000 |
| O=S(=O)(NCCCCNc1ccnc2cc(Cl)ccc12)c1ccc(F)cc1 | 6.47 | 6.15 | > 10000 |
| CCOc1ccc(N=C2NC(=O)S/C2=C2/C(=O)Nc3ccc(Br)cc32)cc1 | < 5.90 | < 6.14 | > 10000 |
| CCOC(=O)N1CCN(c2ccc(C(F)(F)F)cn2)CC1 | < 4.90 | 5.14 | > 100000 |
| Cc1cccc(C)c1N(CC(=O)NCc1ccco1)S(C)(=O)=O | 6.07 | 6.14 | > 10000 |
| COc1cccc2c(C)cc(NCc3ccccc3Cl)nc12 | < 5.90 | < 6.01 | > 10000 |
| COc1ccc(-n2nc(C(=O)NCCC3=CCCCC3)c3ccccc3c2=O)cc1 | 5.14 | < 5.01 | > 100000 |
| O=C(NCCCCCCNC(=O)Nc1nc(-c2ccc(F)cc2)cs1)Nc1nc(-c2ccc(F)cc2)cs1 | 5.22 | 5.30 | 51600 |
| Cc1cc(N2CCC(C)CC2)nc2ccc(NC(=O)c3ccc([N+](=O)[O-])o3)cc12 | 5.78 | 5.67 | 21900 |
| Cc1nc2ccc(-c3ccc4nc(C)[nH]c4c3)cc2[nH]1 | 5.68 | 6.07 | 8630 |

| SMILES | pEC50 (Plasmodium falciparum [1]) | pEC50 (Plasmodium falciparum [2]) | CC50 [3] [nM] |
| --- | --- | --- | --- |
| CCOC(=O)c1cnc2ccc(OCC)cc2c1NCCN(CC)CC | 6.08 | < 6.01 | > 10000 |
| O=C1CN(C(=O)CC2CCCCC2)C(c2ccccc2)c2cc(Cl)ccc2N1 (configuration not stated) | 5.12 | 5.34 | 46300 |
| CC(C)CC(=O)OC1C(N2CCCCC2)c2c(ccc(/C=C/C(=O)N3CCCCC3)c2O)OC1(C)C (configuration not stated) | 6.04 | 6.01 | > 10000 |
| COCCn1nnnc1C(c1cc2cc3c(cc2[nH]c1=O)OCCO3)N1CCC(O)CC1 (configuration not stated) | < 5.90 | 6.01 | > 10000 |
| CCOC(=O)c1c(NC(=O)CSc2nnc(CNC(=O)c3cccs3)n2-c2ccccc2OC)sc2c1CCC2 | < 6.21 | < 6.01 | > 10000 |
| O=C(NNc1nc(-c2cc3ccccc3oc2=O)cs1)c1ccccc1 | < 5.90 | < 6.01 | > 10000 |
| CCCCSc1ncnc2c1c(-c1ccccc1)cn2-c1cccc(F)c1 | < 5.90 | < 6.01 | > 10000 |
| O=C(/C=C/c1ccccc1)c1c(-c2ccccc2)c2cc([N+](=O)[O-])ccc2[nH]c1=O | < 5.78 | < 6.01 | > 10000 |
| CCC(=O)NCc1nc2ccccc2n1Cc1ccc(C)cc1 | < 4.90 | < 5.01 | > 100000 |
| COc1ccc(CNC(=O)C(Cc2c[nH]c3ccccc23)N2CCS(=O)(=O)CC2)cc1 (configuration not stated) | 6.07 | 6.11 | 8040 |
| CCc1ccc(C=NNC(=O)COc2ccc3c(c2)OCO3)cc1 | < 5.91 | < 6.01 | > 10000 |
| O=C(Oc1ccc(-c2ccc(OC(=O)c3ccco3)cc2)cc1)c1ccco1 | < 6.13 | 6.01 | > 10000 |
| Clc1cc(C=NNC2=NCCCN2)cc(Cl)n1 | 6.61 | < 6.14 | > 10000 |
| N#Cc1cc(C#N)c(N2CCN(c3cccc(Cl)n3)CC2)nc1N | 6.10 | 6.15 | > 10000 |
| O=C(NC(=C(Cl)Cl)[P+](c1ccccc1)(c1ccccc1)c1ccccc1)c1ccc(F)cc1 | 6.02 | 6.77 | 1740 |
| O=C1CCC(c2ccc(Cl)c(Cl)c2)c2ccc(O)cc21 (configuration not stated) | 6.35 | < 6.04 | > 9270 |
| CCCN1CCC(N2C[C@@H](NC3CCN(CCc4ccccc4)CC3)C[C@H]2C(=O)NCCc2ccc3c(c2)OCO3)CC1 | 7.06 | 6.10 | 11100 |
| CCOc1cc(Br)cc(/C=C2\NC(=S)NC2=O)c1O | < 5.90 | < 6.01 | > 10000 |
| CCc1cc(=O)n(C)c(SC(C)C(=O)Nc2ccc(F)cc2)n1 (configuration not stated) | 6.12 | 6.14 | > 10000 |
| CC(C)(c1ccc(Oc2ccc(NC(=O)C(F)(F)F)cc2)cc1)c1cccc(Oc2ccc(NC(=O)C(F)(F)F)cc2)c1 | 5.69 | < 6.01 | > 10000 |
| O=S(=O)(NC1CCCC1)c1cccc2nonc12 | < 5.80 | < 6.01 | > 10000 |
| CS(=O)(=O)c1ccccc1S(=O)(=O)N1CCC(NC(=O)c2ccccc2Cl)(C(=O)O)CC1 | < 5.90 | < 6.14 | > 10000 |
| NC12CC3CC(C1)CC(SSC14CC5CC(CC(N)(C5)C1)C4)(C3)C2 | 6.68 | 6.72 | 1960 |
| Nc1c(C(=O)NCc2ccccc2)nnn1Cc1ccc(F)cc1Cl | < 6.07 | 6.14 | > 10000 |
| CCCSCCCNC(=O)c1oc2c(c1C)-c1[nH]ncc1CC2 | < 5.94 | < 6.14 | > 10000 |
| CC(=O)Nc1cc(C(F)(F)F)cc(C(F)(F)F)c1 | 5.88 | 6.15 | > 10000 |
| COc1cc(OC)c(N(C)S(=O)(=O)c2cccc(C(=O)OCC(=O)Nc3ccccc3C(C)=O)c2)cc1Cl | 5.08 | 5.14 | > 100000 |
